One block for each compound: values may come before it.
Tests used:
[1] = method code SF-AS, from DOI: 10.1002/chin.199416148, PMID: 8117185
[2] = method code SF-AS, from DOI: 10.1007/s001289900158, PMID: 8661463
[3] = method code SF-HPLC, from PMID: 2780588
[4] = method code SF-AS, from DOI: 10.1021/jm00253a014, PMID: 4151967; conditions: pH 7.4
[5] = method code SF-HPLC, from DOI: 10.1016/0045-6535(86)90532-1; conditions: pH 6.5
[6] = method code SF-HPLC, from DOI: 10.1007/s00216-006-0868-5, PMID: 17082876
[7] = not given; remark: listed apart in the source
[8] = method code SF, from DOI: 10.1016/s0968-0896(00)00025-0, PMID: 10882003
[9] = not given; remark: listed apart in the source
[10] = method code SF-AS, from DOI: 10.1021/jm00291a017, PMID: 5140011
[11] = not given; remark: listed apart in the source
[12] = method code SF, from Yoshimoto, M. (1982). Quantitative structure-activity relationships and structure patterns of drugs. SankyoÌ„ KenkyuÌ„jo nenpoÌ„ (Annual report of Sankyo Research Laboratories), 34, 1-38.
[13] = method code SF-HPLC, from PMID: 9554875; conditions: pH 6.8
[14] = not given; remark: listed apart in the source
[15] = method code SF-AS, from PMID: 10944786; conditions: pH 7.0
[16] = method code SF-NMR, from DOI: 10.1002/jps.2600751016, PMID: 3795031
[17] = method code SF-AS, from DOI: 10.1002/jps.2600710122
[18] = method code SF-AS, from DOI: 10.1016/j.ejmech.2011.02.056, PMID: 21420207
[19] = not given; remark: listed apart in the source

SMILES: CCCCCCCCC(=O)NCc1cccc(OC)c1
- logP [3]: 3.31

SMILES: COC1=C(C)C(=O)c2c(c(COC(N)=O)c3n2CCC3)C1=O
- logD [4]: 1.71

SMILES: O=C1C(Cl)=C(Cl)C(=O)C(Cl)=C1Cl
- logP [6]: 2.19

SMILES: CCCCCCCCCCCCCCCC(=O)OCC(COC(=O)C(C)c1ccc2cc(OC)ccc2c1)OC(=O)CCCCCCCCCCCCCCC (stereo unspecified)
- logP [7]: 6.28

SMILES: Cc1cccc(=O)[nH]1
- logP [8]: -0.04

SMILES: CNC(=O)O/N=C/C(C)(C)SC
- logP [11]: 1.19

SMILES: CCSc1ccc2c(c1)N(CCCN1CCN(C)CC1)c1ccccc1S2
- logP: 4.82

SMILES: Cc1ccc2c(c1)COP(=O)(OCC1C=CC(n3cc(C)c(=O)[nH]c3=O)O1)O2 (stereo unspecified)
- logD [13]: 0.73

SMILES: CCNC(=S)NCC
- logD [5]: 0.57

SMILES: O=c1cccc(Cl)[nH]1
- logD ([8]; pH 7.4): 0.78

SMILES: CCCCSCC(=O)NC1(OC)C(=O)N2C(C(=O)O)=C(COC(N)=O)CSC21 (stereo unspecified)
- logP [12]: -1.57

SMILES: OCCO
- logP [9]: -1.21

SMILES: Clc1ccnc(Cl)n1
- logP [2]: 1.16

SMILES: CCCOc1cccc(NC(=O)OCN2CCCCC2)c1
- logD [15]: 2.6

SMILES: CCCCCCCCC(=O)NCc1ccc(O)c(OC)c1
- logP [3]: 2.96

SMILES: CCC(=O)Nc1n[nH]c(NC(=O)CC)n1
- logP [17]: -0.07

SMILES: CC1=C(N)C(=O)c2c(COC(N)=O)c3n(c2C1=O)CCC3O (stereo unspecified)
- logD [4]: 0.64

SMILES: Cc1cccc2sc3nncn3c12
- logP [11]: 2.07

SMILES: CCn1c(C)c(COC(N)=O)c2c1C(=O)C(C)=C(OC)C2=O
- logD [4]: 1.81

SMILES: CCCOC(=O)NCCCN(C)C
- logP [11]: 2.43

SMILES: CCCCC(N)=O
- logP [9]: 0.37

SMILES: S=C1CCCCCCN1
- logP [10]: 1

SMILES: CN1CCN(CCCN2c3ccccc3Sc3ccc(Cl)cc32)CC1
- logP: 4.79

SMILES: COc1cc(Cl)ccc1Cn1nc(-c2sc(NC(=O)C(C)(C)C)nc2C)cc1C(=O)N1CCOCC1
- logP [19]: 4.1

SMILES: O=C(Nc1n[nH]c(NC(=O)C(F)(F)F)n1)C(F)(F)F
- logP [17]: 0.62

SMILES: CCCCOc1ccccc1NC(=O)OCN1CCCCC1
- logD [15]: 2.39

SMILES: Cc1cccc2c1OP(=O)(OCC1C=CC(n3cc(C)c(=O)[nH]c3=O)O1)OC2 (stereo unspecified)
- logD [13]: 0.71

SMILES: Cc1ccc2c(ccc3ccccc32)c1
- logP [14]: 5.24

SMILES: COC(N)=O
- logP [9]: -0.64

SMILES: CCCCCCCCCCCNC(=O)Cc1ccc(O)c(OC)c1
- logP [3]: 3.74

SMILES: Cc1cn(C2C=CC(COP3(=O)OCc4ccccc4O3)O2)c(=O)[nH]c1=O (stereo unspecified)
- logD [13]: 0.28

SMILES: CCCCCCCCCC(=O)N[C@H]1C[C@H](O[C@H]2C[C@](O)(C(=O)CO)Cc3c(O)c4c(c(O)c32)C(=O)c2c(OC)cccc2C4=O)O[C@@H](C)[C@H]1O
- logP [18]: 1.92

SMILES: CCCC(=O)Nc1n[nH]c(NC(=O)CCC)n1
- logP [17]: 0.79

SMILES: COc1ccc(NC(=O)c2cc(-c3sc(NC(=O)C(C)(C)C)nc3C)nn2Cc2ccc(Cl)cc2OC)cc1
- logP [19]: 5.33

SMILES: CCCCCCCC/C=C\CCCCCCCC(=O)OCC(COC(=O)C(C)c1ccc2cc(OC)ccc2c1)OC(=O)CCCCCCC/C=C\CCCCCCCC (stereo unspecified)
- logP [7]: 6.39

SMILES: CCCCCCCCCCCCCCCCCCCC(=O)N[C@H]1C[C@H](O[C@H]2C[C@](O)(C(=O)CO)Cc3c(O)c4c(c(O)c32)C(=O)c2c(OC)cccc2C4=O)O[C@@H](C)[C@H]1O
- logP [18]: 2.31

SMILES: COc1ccc2c(c1)COP(=O)(OCC1C=CC(n3cc(C)c(=O)[nH]c3=O)O1)O2 (stereo unspecified)
- logD [13]: 0.36

SMILES: Cc1cccc2c1ccc1ccccc12
- logP [14]: 5.08

SMILES: CCCOc1ccc(NC(=O)OCN2CCCCC2)cc1
- logD [15]: 2.42

SMILES: COc1ccc2c(c1)N(CC(C)CN(C)C)c1ccccc1S2 (stereo unspecified)
- logP: 4.4

SMILES: CCCSCC(=O)NC1(OC)C(=O)N2C(C(=O)O)=C(COC(N)=O)CSC21 (stereo unspecified)
- logP [12]: -1.76

SMILES: Cc1nc(NC(=O)C(C)(C)C)sc1-c1cc(C(=O)NCc2ccccc2)n(Cc2ccccc2)n1
- logP [19]: 4.82

SMILES: OCCCCC(F)(F)F
- logP [16]: 1.15

SMILES: c1ccc2cc3cc4ccccc4cc3cc2c1
- logP [14]: 5.76

SMILES: COP(=O)(NC(C)=O)SC (stereo unspecified)
- logP [11]: -0.46

SMILES: COc1cc(CNC(=O)CCCC/C=C/C(C)C)ccc1O
- logP [3]: 3.04

SMILES: Cc1cc(C)c2c(c1)COP(=O)(OCC1C=CC(n3cc(C)c(=O)[nH]c3=O)O1)O2 (stereo unspecified)
- logD [13]: 1.18

Next, values leading:

- logP [1]: 1.55
SMILES: CC(C(=O)CCN1CCCCC1)N1C(=O)C2CC=CCC2C1=O (stereo unspecified)

- logP [1]: 0.86
SMILES: O=C(CCN1CCCCC1)CN1C(=O)c2ccccc2C1=O

- logP [2]: 2.17
SMILES: CCN(CC)c1nc(Cl)nc(Cl)n1

- logP: 4.89
SMILES: CC(NCCC(c1ccccc1)c1ccccc1)c1ccccc1 (stereo unspecified)

- logD [5]: 0.49
SMILES: CN(C)C(=S)N(C)C

- logP [3]: 1.67
SMILES: CCCCCNC(=O)Cc1ccc(O)c(OC)c1

- logP [9]: -0.02
SMILES: OCCCCCCO

- logP [10]: 0.13
SMILES: S=C1CCCCN1

- logP [6]: 3.25
SMILES: Cc1ccc(S(=O)(=O)Cl)cc1

- logP [12]: -1.99
SMILES: COC1(NC(=O)CSc2[nH]cnc3ncnc2-3)C(=O)N2C(C(=O)O)=C(COC(N)=O)CSC21 (stereo unspecified)

- logP: 4.25
SMILES: OCCN1CCN(CCCN2c3ccccc3Sc3ccc(Cl)cc32)CC1

- logP [14]: 6.81
SMILES: c1ccc2cc3cc4c(ccc5ccccc54)cc3cc2c1

- logD [15]: 3.04
SMILES: CCCCOc1ccc(NC(=O)OCN2CCCCC2)cc1

- logP [7]: 4.84
SMILES: CCCC(=O)OCC(COC(=O)C(C)c1ccc2cc(OC)ccc2c1)OC(=O)CCC (stereo unspecified)

- logP [16]: 1.61
SMILES: CC(CCO)CC(F)(F)F (stereo unspecified)

- logD [5]: -0.43
SMILES: CN(C)C(N)=S

- logP [2]: 1.22
SMILES: CCN(CC)c1nc(NN)nc(NN)n1

- logP [7]: 6.08
SMILES: CCCCCCCCCCCC(=O)OCC(COC(=O)C(C)c1ccc2cc(OC)ccc2c1)OC(=O)CCCCCCCCCCC (stereo unspecified)

- logP [8]: -0.56
SMILES: O=c1cccc[nH]1

- logD [4]: 1.54
SMILES: COC1=C(C)C(=O)c2c(c(COC(N)=O)c3n2CCC3OC(C)=O)C1=O (stereo unspecified)

- logP [8]: 2.08
SMILES: CCOC(=O)c1cc(C#N)c(=O)[nH]c1C(F)(F)F

- logP [12]: -2.16
SMILES: COC1(NC(=O)CSc2nnc(C)s2)C(=O)N2C(C(=O)O)=C(COC(N)=O)CSC21 (stereo unspecified)

- logP [10]: 0.75
SMILES: S=C1CCCCCN1

- logP [6]: 2
SMILES: O=C(Nc1ccccc1)C(=O)Nc1ccccc1

- logD [5]: -0.21
SMILES: CCNC(N)=S

- logP [2]: 0.62
SMILES: NNc1nc(NN)nc(N2CCOCC2)n1

- logP [18]: 1.94
SMILES: CCCCCCCCCCCCCC(=O)N[C@H]1C[C@H](O[C@H]2C[C@](O)(C(=O)CO)Cc3c(O)c4c(c(O)c32)C(=O)c2c(OC)cccc2C4=O)O[C@@H](C)[C@H]1O

- logP [17]: 0.55
SMILES: O=C(Nc1n[nH]c(NC(=O)c2ccc([N+](=O)[O-])cc2)n1)c1ccc([N+](=O)[O-])cc1

- logP [10]: 1.44
SMILES: S=C1CCCCCCCN1

- logP [18]: 2
SMILES: CCSCCCCCCCCCCCC(=O)NC1CC(OC2CC(O)(C(=O)CO)Cc3c(O)c4c(c(O)c32)C(=O)c2c(OC)cccc2C4=O)OC(C)C1O (stereo unspecified)

- logP [19]: 5.17
SMILES: COc1ccc(NC(=O)c2cc(-c3sc(NC(=O)C(C)(C)C)nc3C)n(-c3ccc(Br)cc3)n2)cc1

- logP [1]: 1.44
SMILES: O=C(CCN1CCCCC1)CN1C(=O)C2CC=CCC2C1=O (stereo unspecified)

- logP [16]: 0.71
SMILES: CC(O)CC(F)(F)F (stereo unspecified)

- logP [6]: 3.49
SMILES: C=Cc1ccccc1C=C

- logD [15]: 2.33
SMILES: CCCOc1ccccc1NC(=O)OCN1CCCCC1

- logD [4]: 1.64
SMILES: CCn1c(C)c(COC(=O)NCCO)c2c1C(=O)C(C)=C(OC)C2=O

- logP [1]: 2.23
SMILES: O=C(CCN1CCCCC1)CN1C(=O)CC(c2ccc(Cl)cc2)C1=O (stereo unspecified)

- logP [18]: 2.17
SMILES: CCCCCCCCCCCCCCCCCC(=O)N[C@H]1C[C@H](O[C@H]2C[C@](O)(C(=O)CO)Cc3c(O)c4c(c(O)c32)C(=O)c2c(OC)cccc2C4=O)O[C@@H](C)[C@H]1O

- logP [1]: 0.77
SMILES: CC(C(=O)CCN(C)C)N1C(=O)C2CC=CCC2C1=O (stereo unspecified)

- logP [12]: -1.31
SMILES: CCCCCSCC(=O)NC1(OC)C(=O)N2C(C(=O)O)=C(COC(N)=O)CSC21 (stereo unspecified)

- logP [16]: 1.64
SMILES: OCCCCCC(F)(F)F

- logP [14]: 5.85
SMILES: CCc1ccc2cc3ccccc3cc2c1

- logP [7]: 5.68
SMILES: CCCCCC(=O)OCC(CCOC(=O)c1ccc2cc(OC)ccc2c1)OC(=O)CCCCC (stereo unspecified)

- logP [19]: 4.55
SMILES: C=CCn1nc(-c2sc(NC(=O)C(C)(C)C)nc2C)cc1C(=O)Nc1ccc(OC)cc1

Source: the SangsterLogP compilation
